Assay results reported in ChEMBL document CHEMBL5543142, “Discovery of YFJ-36: Design, Synthesis, and Antibacterial Activities of Catechol-Conjugated β-Lactams against Gram-Negative Bacteria” (J Med Chem, 2024).

Legend:
Escherichia coli [1] = assay: Antibacterial activity against ESBL-producing multidrug-resistant Escherichia coli clinical isolate 14-1 assessed as inhibition of bacterial growth incubated for 18 to 20 hrs by two fold serial dilution assay; assay type: functional; conditions: time 18-20 hrs
Escherichia coli [2] = assay: Antibacterial activity against ESBL-producing multidrug-resistant Escherichia coli clinical isolate 14-2 assessed as inhibition of bacterial growth incubated for 18 to 20 hrs by two fold serial dilution assay; assay type: functional; conditions: time 18-20 hrs
Escherichia coli [3] = assay: Antibacterial activity against ESBL-producing multidrug-resistant Escherichia coli clinical isolate 14-4 assessed as inhibition of bacterial growth incubated for 18 to 20 hrs by two fold serial dilution assay; assay type: functional; conditions: time 18-20 hrs
Acinetobacter baumannii [4] = assay: Antibacterial activity against OXA-23 producing multidrug-resistant Acinetobacter baumannii clinical isolate 15-1 assessed as inhibition of bacterial growth incubated for 18 to 20 hrs by two fold serial dilution assay; assay type: functional; conditions: time 18-20 hrs
Acinetobacter baumannii [5] = assay: Antibacterial activity against OXA-23 producing multidrug-resistant Acinetobacter baumannii clinical isolate 15-2 assessed as inhibition of bacterial growth incubated for 18 to 20 hrs by two fold serial dilution assay; assay type: functional; conditions: time 18-20 hrs
Acinetobacter baumannii [6] = assay: Antibacterial activity against OXA-23 producing multidrug-resistant Acinetobacter baumannii clinical isolate 15-3 assessed as inhibition of bacterial growth incubated for 18 to 20 hrs by two fold serial dilution assay; assay type: functional; conditions: time 18-20 hrs
Acinetobacter baumannii [7] = assay: Antibacterial activity against OXA-23 producing multidrug-resistant Acinetobacter baumannii clinical isolate 15-4 assessed as inhibition of bacterial growth incubated for 18 to 20 hrs by two fold serial dilution assay; assay type: functional; conditions: time 18-20 hrs
Acinetobacter baumannii [8] = assay: Antibacterial activity against OXA-23 producing multidrug-resistant Acinetobacter baumannii clinical isolate 15-5 assessed as inhibition of bacterial growth incubated for 18 to 20 hrs by two fold serial dilution assay; assay type: functional; conditions: time 18-20 hrs
Klebsiella pneumoniae [9] = assay: Antibacterial activity against KPC-2 producing multidrug-resistant Klebsiella pneumoniae clinical isolate 15-1 assessed as inhibition of bacterial growth incubated for 18 to 20 hrs by two fold serial dilution assay; assay type: functional; conditions: time 18-20 hrs
Klebsiella pneumoniae [10] = assay: Antibacterial activity against KPC-2 producing multidrug-resistant Klebsiella pneumoniae clinical isolate 15-2 assessed as inhibition of bacterial growth incubated for 18 to 20 hrs by two fold serial dilution assay; assay type: functional; conditions: time 18-20 hrs
Klebsiella pneumoniae [11] = assay: Antibacterial activity against KPC-2 producing multidrug-resistant Klebsiella pneumoniae clinical isolate 15-5 assessed as inhibition of bacterial growth incubated for 18 to 20 hrs by two fold serial dilution assay; assay type: functional; conditions: time 18-20 hrs
Escherichia coli [12] = assay: Antibacterial activity against Escherichia coli ATCC35218 assessed as inhibition of bacterial growth incubated for 18 to 20 hrs by two fold serial dilution assay; assay type: functional; conditions: time 18-20 hrs
Pseudomonas aeruginosa [13] = assay: Antibacterial activity against IMP-4 producing multidrug-resistant Pseudomonas aeruginosa clinical isolate 17-13 assessed as inhibition of bacterial growth incubated for 18 to 20 hrs by two fold serial dilution assay; assay type: functional; conditions: time 18-20 hrs
Pseudomonas aeruginosa [14] = assay: Antibacterial activity against IMP-4 producing multidrug-resistant Pseudomonas aeruginosa clinical isolate 17-1 assessed as inhibition of bacterial growth incubated for 18 to 20 hrs by two fold serial dilution assay; assay type: functional; conditions: time 18-20 hrs
Pseudomonas aeruginosa [15] = assay: Antibacterial activity against IMP-4 producing multidrug-resistant Pseudomonas aeruginosa clinical isolate 19-17 assessed as inhibition of bacterial growth incubated for 18 to 20 hrs by two fold serial dilution assay; assay type: functional; conditions: time 18-20 hrs
Klebsiella pneumoniae [16] = assay: Antibacterial activity against KPC-2 producing multidrug-resistant Klebsiella pneumoniae clinical isolate 15-3 assessed as inhibition of bacterial growth incubated for 18 to 20 hrs by two fold serial dilution assay; assay type: functional; conditions: time 18-20 hrs
Escherichia coli [17] = assay: Antibacterial activity against Escherichia coli NCTC-13353 assessed as inhibition of bacterial growth incubated for 18 to 20 hrs in presence of CAMHB medium by two fold serial dilution assay; assay type: functional; conditions: time 18-20 hrs
Escherichia coli [18] = assay: Antibacterial activity against Escherichia coli ATCC-35218 assessed as inhibition of bacterial growth incubated for 18 to 20 hrs in presence of CAMHB medium by two fold serial dilution assay; assay type: functional; conditions: time 18-20 hrs
Klebsiella pneumoniae [19] = assay: Antibacterial activity against Klebsiella pneumoniae ATCC BAA-1898 assessed as inhibition of bacterial growth incubated for 18 to 20 hrs in presence of CAMHB medium by two fold serial dilution assay; assay type: functional; conditions: time 18-20 hrs
Escherichia coli [20] = assay: Antibacterial activity against Escherichia coli NCTC-13353 assessed as inhibition of bacterial growth incubated for 18 to 20 hrs in presence of iron-depleted CAMHB medium by two fold serial dilution assay; assay type: functional; conditions: time 18-20 hrs
Escherichia coli [21] = assay: Antibacterial activity against Escherichia coli ATCC-35218 assessed as inhibition of bacterial growth incubated for 18 to 20 hrs in presence of iron-depleted CAMHB medium by two fold serial dilution assay; assay type: functional; conditions: time 18-20 hrs
Klebsiella pneumoniae [22] = assay: Antibacterial activity against Klebsiella pneumoniae ATCC BAA-1898 assessed as inhibition of bacterial growth incubated for 18 to 20 hrs in presence of iron-depleted CAMHB medium by two fold serial dilution assay; assay type: functional; conditions: time 18-20 hrs
[23] = AUC (0 to infinity) in ICR mouse at 20 mg/kg,iv administration measured upto 6 hrs by LC-MS/MS analysis; assay type: ADME, organism-based; conditions: in vivo
[24] = Clearance in ICR mouse at 20 mg/kg,iv administration measured upto 6 hrs by LC-MS/MS analysis; assay type: ADME, organism-based; conditions: in vivo
[25] = Half life in ICR mouse at 20 mg/kg,iv administration measured upto 6 hrs by LC-MS/MS analysis; assay type: ADME, organism-based; conditions: in vivo
[26] = MRT in ICR mouse at 20 mg/kg,iv administration measured upto 6 hrs by LC-MS/MS analysis; assay type: ADME, organism-based; conditions: in vivo
[27] = Volume of distribution at steady state in ICR mouse at 20 mg/kg,iv administration measured upto 6 hrs by LC-MS/MS analysis; assay type: ADME, organism-based; conditions: in vivo, read-out: Vdss
hERG (KCNH2) = hERG (KCNH2) (Homo sapiens, UniProt Q12809); assay: Inhibition of hERG at 40 uM by whole cell Qpatch assay relative to control; assay type: toxicity
Chain of hERG (KCNH2) (Q12809 whole entry): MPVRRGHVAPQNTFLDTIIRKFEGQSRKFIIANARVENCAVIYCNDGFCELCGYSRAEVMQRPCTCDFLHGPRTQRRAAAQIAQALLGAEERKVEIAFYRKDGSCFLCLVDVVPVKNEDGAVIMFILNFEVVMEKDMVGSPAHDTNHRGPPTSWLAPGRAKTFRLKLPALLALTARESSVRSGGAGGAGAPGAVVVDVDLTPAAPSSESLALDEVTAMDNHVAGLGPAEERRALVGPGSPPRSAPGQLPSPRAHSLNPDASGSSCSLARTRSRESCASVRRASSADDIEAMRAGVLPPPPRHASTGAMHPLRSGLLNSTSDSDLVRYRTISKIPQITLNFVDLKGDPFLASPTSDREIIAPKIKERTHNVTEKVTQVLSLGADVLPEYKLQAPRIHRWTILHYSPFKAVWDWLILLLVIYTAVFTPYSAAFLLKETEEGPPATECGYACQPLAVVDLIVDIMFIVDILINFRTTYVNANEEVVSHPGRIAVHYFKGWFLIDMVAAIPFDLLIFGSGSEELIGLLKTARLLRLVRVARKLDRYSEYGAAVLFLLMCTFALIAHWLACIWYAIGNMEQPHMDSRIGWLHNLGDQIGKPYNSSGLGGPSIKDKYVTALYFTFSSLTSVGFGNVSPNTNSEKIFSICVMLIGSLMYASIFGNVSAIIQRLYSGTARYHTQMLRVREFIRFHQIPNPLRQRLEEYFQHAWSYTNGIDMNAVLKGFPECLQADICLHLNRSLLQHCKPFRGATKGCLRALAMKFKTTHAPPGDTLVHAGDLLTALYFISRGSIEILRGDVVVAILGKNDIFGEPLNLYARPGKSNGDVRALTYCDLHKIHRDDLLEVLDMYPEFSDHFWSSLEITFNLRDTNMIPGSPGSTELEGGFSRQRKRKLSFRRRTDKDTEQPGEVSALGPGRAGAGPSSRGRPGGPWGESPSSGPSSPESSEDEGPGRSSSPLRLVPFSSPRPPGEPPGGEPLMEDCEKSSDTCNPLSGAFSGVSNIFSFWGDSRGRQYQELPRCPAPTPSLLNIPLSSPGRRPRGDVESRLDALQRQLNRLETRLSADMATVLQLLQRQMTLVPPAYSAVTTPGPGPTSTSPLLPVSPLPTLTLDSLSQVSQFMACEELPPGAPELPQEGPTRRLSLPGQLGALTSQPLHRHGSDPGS

[28] = target: Voltage-gated inwardly rectifying potassium channel KCNH2 (Homo sapiens, UniProt Q12809); assay: Inhibition of hERG by whole cell Qpatch assay; assay type: toxicity
Chain of Voltage-gated inwardly rectifying potassium channel KCNH2 (Q12809 whole entry): as above

Acinetobacter baumannii [29] = assay: Antibacterial activity against OXA-23 producing multidrug-resistant Acinetobacter baumannii clinical isolate 17-2 assessed as inhibition of bacterial growth incubated for 18 to 20 hrs by two fold serial dilution assay; assay type: functional; conditions: time 18-20 hrs
Acinetobacter baumannii [30] = assay: Antibacterial activity against OXA-23 producing multidrug-resistant Acinetobacter baumannii clinical isolate 17-3 assessed as inhibition of bacterial growth incubated for 18 to 20 hrs by two fold serial dilution assay; assay type: functional; conditions: time 18-20 hrs
Pseudomonas aeruginosa [31] = assay: Antibacterial activity against IMP-4 producing multidrug-resistant Pseudomonas aeruginosa clinical isolate 19-5 assessed as inhibition of bacterial growth incubated for 18 to 20 hrs by two fold serial dilution assay; assay type: functional; conditions: time 18-20 hrs
Pseudomonas aeruginosa [32] = assay: Antibacterial activity against IMP-4 producing multidrug-resistant Pseudomonas aeruginosa clinical isolate 19-1 assessed as inhibition of bacterial growth incubated for 18 to 20 hrs by two fold serial dilution assay; assay type: functional; conditions: time 18-20 hrs
[33] = Plasma protein binding in mouse incubated for 35 mins by LC-MS/MS analysis; assay type: ADME, cell-free; conditions: read-out: PPB (converted)
Acinetobacter baumannii [34] = assay: Antibacterial activity against OXA-23 producing multidrug-resistant Acinetobacter baumannii clinical isolate 17-5 assessed as inhibition of bacterial growth incubated for 18 to 20 hrs by two fold serial dilution assay; assay type: functional; conditions: time 18-20 hrs
Acinetobacter baumannii [35] = assay: Antibacterial activity against OXA-23 producing multidrug-resistant Acinetobacter baumannii clinical isolate 17-6 assessed as inhibition of bacterial growth incubated for 18 to 20 hrs by two fold serial dilution assay; assay type: functional; conditions: time 18-20 hrs
Acinetobacter baumannii [36] = assay: Antibacterial activity against OXA-23 producing multidrug-resistant Acinetobacter baumannii clinical isolate 17-7 assessed as inhibition of bacterial growth incubated for 18 to 20 hrs by two fold serial dilution assay; assay type: functional; conditions: time 18-20 hrs
Acinetobacter baumannii [37] = assay: Antibacterial activity against OXA-23 producing multidrug-resistant Acinetobacter baumannii clinical isolate 17-8 assessed as inhibition of bacterial growth incubated for 18 to 20 hrs by two fold serial dilution assay; assay type: functional; conditions: time 18-20 hrs

Row | Structure (SMILES) | MIC (Escherichia coli [1]) | MIC (Escherichia coli [2]) | MIC (Escherichia coli [3]) | MIC (Acinetobacter baumannii [4]) | MIC (Acinetobacter baumannii [5]) | MIC (Acinetobacter baumannii [6]) | MIC (Acinetobacter baumannii [7]) | MIC (Acinetobacter baumannii [8]) | MIC (Klebsiella pneumoniae [9]) | MIC (Klebsiella pneumoniae [10]) | MIC (Klebsiella pneumoniae [11]) | MIC (Escherichia coli [12]) | MIC (Pseudomonas aeruginosa [13]) | MIC (Pseudomonas aeruginosa [14]) | MIC (Pseudomonas aeruginosa [15]) | MIC (Klebsiella pneumoniae [16]) | AUC(0-inf) [23] | clearance [24] | half-life [25] | MRT [26] | other results
1 | Nc1nc(/C(=N/OC(C(=O)O)C2CCC(F)(F)CC2)C(=O)N[C@@H]2C(=O)N3C(C(=O)O)=C(CSCCNC(=O)c4ccc(O)c(O)c4Cl)CS[C@H]23)cs1.O=C(O)C(F)(F)F (stereo partly drawn) | 0.5 µg/mL | 0.5 µg/mL | 0.125 µg/mL | 4 µg/mL | 2 µg/mL | 4 µg/mL | 4 µg/mL | 2 µg/mL | 2 µg/mL | 0.5 µg/mL | 0.25 µg/mL | ≤ 0.03 µg/mL | 0.25 µg/mL | 4 µg/mL | 1 µg/mL | 1 µg/mL | 10400 ng·h/mL | 33.9 mL/min/kg | 188 min | 45.6 min | MIC (Escherichia coli [17]): 0.5 µg/mL; MIC (Escherichia coli [18]): 2 µg/mL; MIC (Klebsiella pneumoniae [19]): 8 µg/mL; MIC (Escherichia coli [20]): 0.5 µg/mL; MIC (Escherichia coli [21]): 0.25 µg/mL; MIC (Klebsiella pneumoniae [22]): 2 µg/mL; Vd [27]: 1.59 L/kg; inhibition at 40 µM (hERG (KCNH2)): 16.8%; IC50 [28]: > 40 µM
2 | Nc1nc(/C(=N/OC(C(=O)O)C2CCC(F)(F)CC2)C(=O)N[C@@H]2C(=O)N3C(C(=O)O)=C(CSCCNC(=O)c4ccc(O)c(O)c4Cl)CS[C@H]23)c(Cl)s1.O=C(O)C(F)(F)F (stereo partly drawn) | 0.125 µg/mL | 0.25 µg/mL | 0.5 µg/mL | 4 µg/mL | 1 µg/mL | 4 µg/mL | 8 µg/mL | 4 µg/mL | 0.5 µg/mL | 1 µg/mL | 1 µg/mL | 0.125 µg/mL | 0.5 µg/mL |  | 0.125 µg/mL | 0.5 µg/mL | 4740 ng·h/mL | 54.1 mL/min/kg | 20.4 min | 10.8 min | MIC (Acinetobacter baumannii [29]): 0.25 µg/mL; MIC (Acinetobacter baumannii [30]): 2 µg/mL; MIC (Pseudomonas aeruginosa [31]): 0.5 µg/mL; MIC (Pseudomonas aeruginosa [32]): 8 µg/mL; Vd [27]: 0.649 L/kg; fraction unbound at 35 min [33]: 0.031
3 | CC(C)[C@@H](O/N=C(\C(=O)N[C@@H]1C(=O)N2C(C(=O)O)=C(CSCCNC(=O)c3ccc(O)c(O)c3Cl)CS[C@H]12)c1csc(N)n1)C(=O)O.O=C(O)C(F)(F)F | 0.125 µg/mL | 1 µg/mL | 0.125 µg/mL |  |  |  |  |  | 0.25 µg/mL | 0.25 µg/mL | 0.25 µg/mL | 0.5 µg/mL | 0.06 µg/mL | 32 µg/mL | 0.25 µg/mL | 2 µg/mL |  |  |  |  | MIC (Acinetobacter baumannii [29]): 1 µg/mL; MIC (Acinetobacter baumannii [30]): 0.5 µg/mL; MIC (Pseudomonas aeruginosa [31]): 2 µg/mL; MIC (Pseudomonas aeruginosa [32]): 2 µg/mL; MIC (Acinetobacter baumannii [34]): 2 µg/mL; MIC (Acinetobacter baumannii [35]): 2 µg/mL; MIC (Acinetobacter baumannii [36]): 4 µg/mL; MIC (Acinetobacter baumannii [37]): 1 µg/mL
